Experimental data reported in patent publication US8324380B2, “Amino-heteroaryl-containing prokineticin 1 receptor antagonists” (Janssen Pharmaceutica NV, priority 2007, dated 2012).
Like-named read-outs stand apart in the source and are kept apart here.

Tests used:
rat ileum mucosa = test: Carbachol-evoked Isc in rat ileum mucosa (selectivity test); settings: carbachol at two concentrations, ascending cumulative, serosal side
[1] = system: isolated rat ileum mucosa
[2] = target: T1, GPR73 (prokineticin 1 receptor) (Homo sapiens, UniProt Q8TCW9); test: PK1 functional assay: Ca2+ mobilization on the FLIPR; type: cell-based; settings: for IC50: HEK 293 GPR73 cells, read-out: Ca^2+ Mobilization IC50
T1 construct: expressed in transfected cells; host or cells: HEK 293
T1 sequence (Q8TCW9 whole entry, species assumed): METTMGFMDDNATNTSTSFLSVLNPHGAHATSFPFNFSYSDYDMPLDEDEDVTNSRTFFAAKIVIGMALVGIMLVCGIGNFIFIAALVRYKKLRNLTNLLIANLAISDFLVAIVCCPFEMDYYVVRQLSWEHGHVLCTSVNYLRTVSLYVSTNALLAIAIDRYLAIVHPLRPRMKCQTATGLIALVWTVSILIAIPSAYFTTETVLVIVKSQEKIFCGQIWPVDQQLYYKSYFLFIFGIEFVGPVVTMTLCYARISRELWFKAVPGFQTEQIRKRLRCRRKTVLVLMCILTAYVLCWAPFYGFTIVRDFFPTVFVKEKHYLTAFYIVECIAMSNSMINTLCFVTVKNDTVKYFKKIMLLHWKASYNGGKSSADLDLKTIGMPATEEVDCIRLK
Description: At a time of 24 h prior to running the assay, in cell culture media (DMEM containing high Glucose and L-glutamine, 10% FBS, 1% Pen/Streptomycin, 1% Sodium Pyruvate, 20 mM HEPES, Zeocin 200 mg/L), 100 µL of 1.3*10^6/ml HEK 293 GPR73 (prokineticin 1 receptor) expressing cells were plated in a 96 well poly-d-lysine coated plate (Costar), and incubated at 37° C. and 5% CO2. On the day in which the assay was run, the media was removed and 200 µL of 5× Calcium Plus Dye (Molecular Devices) which was previously resuspended with 200 mL of assay buffer [HBSS w/Ca^2+ and Mg^2+ w/o phenol red, 20 mM HEPES, 0.1% BSA, 10 mL probenecid (710 mg probenecid in 5 mL of 1N NaOH, to which was then added 5 mL HBSS containing 20 mM HEPES)] was added to each well of the 96-well plate. The plate was incubated at 37° C. and 5% CO2 for 30 min in dark. The plate was removed and allowed to reach RT for 15 min in the dark. The assay was then run on the FLIPR. In Brief: base line read for 1 min, compound added (25 μL) and incubated for 4 min, 15 seconds, PK1 ligand preparation added (25 μL) for a final concentration of a previously determined EC50 and fluorescence was counted for 1 min, 45 seconds. Baseline is described as the amount of relative fluorescence read when buffer alone is added to cells. Baseline was subtracted from all wells. Percent of control was calculated as follows: (Baseline subtracted well value is divided by baseline subtracted max value)*100. Percent inhibition is 100 minus the percent of control value.
The IC50 is defined as the amount of a given compound required to inhibit 50% of the maximum signal that is generated by the concentration of PK1 preparation used in our assay. IC50 values were calculated using GraphPad Prism.

PK1 receptor = target: T2, PK1 receptor (Rattus norvegicus, UniProt Q8R416); test: Suppression of PK1 evoked increase in Isc in isolated rat ileum mucosa; settings: test compound 1 µM, 15 min; PK1 10 and 100 nM cumulative
T2 construct: The PK1 evoked increase in Isc requires the presence of endogenous PK1 receptors; from tissue; host or cells: rat ileum mucosa (Ussing-type chambers)
T2 sequence (Q8R416 whole entry): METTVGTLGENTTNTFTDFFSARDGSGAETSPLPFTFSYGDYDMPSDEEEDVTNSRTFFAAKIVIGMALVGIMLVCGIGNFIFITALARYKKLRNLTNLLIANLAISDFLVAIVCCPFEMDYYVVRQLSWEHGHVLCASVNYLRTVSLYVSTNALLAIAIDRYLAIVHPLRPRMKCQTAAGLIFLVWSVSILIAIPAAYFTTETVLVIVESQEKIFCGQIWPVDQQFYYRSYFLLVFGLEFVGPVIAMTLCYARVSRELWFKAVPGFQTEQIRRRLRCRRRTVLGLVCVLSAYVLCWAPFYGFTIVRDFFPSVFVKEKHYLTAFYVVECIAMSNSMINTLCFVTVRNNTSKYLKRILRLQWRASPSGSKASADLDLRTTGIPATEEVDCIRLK
Description: Methodology. The basic methodology for Ussing-type ion flux chambers used in these studies was the same as that described in detail above with the following modifications to the experimental protocol. […] The responses to two sequential EFS were used to gauge tissue viability and comparability of the responses of individual tissues from each rat and between rats. Tissue conductance was measured at periodic intervals as changes in the amplitudes of brief short-circuit current responses evoked by application of 1 mV amplitude bi-polar pulses from a pulse generator using Ohm's Law. Three to four tissues from each rat were studied. The tissues from a given animal were grouped and assigned accordingly: one control tissue which received only vehicle followed by two consecutive doses of PK-1 ligand added in a cumulative fashion to the basolateral surface of the tissue; the remaining two to three tissues from the same animal were assigned to be exposed to a given PK-1 receptor antagonist (e.g., 3-4 tissues from 1 rat: Control, Antagonist1, Antagonist2, and/or Antagonist3). Test compound was added to the basolateral tissue side reservoir at a final concentration of 1 µM and allowed a 15 minute incubation period prior to challenge with the PK1 peptide. […]

SMILES: COc1ccc(Cn2c(NCCn3c(N)nc4ccc(C)cc43)nc(=O)n(Cc3ccc(F)cc3)c2=O)cc1 [Cpd 3, 6-[2-(2-Amino-6-methyl-benzoimidazol-1-yl)-ethylamino]-3-(4-fluoro-benzyl)-1-(4-methoxy-benzyl)-1H-[1,3,5]triazine-2,4-dione]
- suppression of the pro-secretory effect of carbachol (rat ileum mucosa): failed to suppress
- suppression of Cholera toxin induced increase in Isc (figure legends) [1]: suppresses
- suppression of the sustained increase in baseline Isc evoked by Cholera toxin [1]: 50-60%
- effect versus increased baseline Isc evoked by Vibrio cholera toxin ([1]; 1 μM): no significant effect
- Ca^2+ Mobilization % Inh @10 µM ([2]; 10 µM, (further determination)): 94%
- Ca^2+ Mobilization % Inh @10 µM ([2]; 10 µM): 96%
- IC50 ([2]; IC50 (further determination)): 0.029 µM
- IC50 [2]: 0.008 µM
- suppression of the PK1 evoked increase in Isc (PK1 receptor): suppresses
